Test results: patent US9844535B2, “SHP2 inhibitors and methods of treating autoimmune and/or glomerulonephritis-associated diseases using SHP2 inhibitors” (Indiana University Research and Technology Corporation, priority 2013, dated 2017)
“Also recorded” adds a separate entry of the source.

Key:
[1] = system: circulating blood cells of SLE-prone mice; experiment: Blood cell counts and circulating lymphocyte subsets; format: in vivo, mouse
Experimental: 50 μl of peripheral blood was collected from mice upon sacrifice and was mixed with 5 mM EDTA anticoagulant to be used for blood cell counts (Hemavet 850FS), to determine numbers of white blood cells (neutrophil, lymphocytes, monocytes, eosinophil and basophil), red blood cells and platelets. In addition, peripheral blood isolated from MRL/lpr mice either treated with vehicle (DMSO) or SHP2 inhibitor was used to count the percentage of lymphocyte subsets, including B cells, CD4+, CD8+ and double negative (DN) T cells through flow cytometry (see below).
(§1) To identify immune cell subsets, isolated cells from tissues were immunostained with mouse antibodies targeted against CD3E (145-2C11, BioLegend, San Diego, Calif.), CD4 (GK1.5, BioLegend), CD8 (53-6.7, eBioscience, San Diego, Calif.), CD45 (30-F11, eBioscience), CD 19 (6125, BioLegend), CD11b (M1170, BioLegend), TCRαβ (H57-597, BioLegend), CD44 (IM7, BioLegend), B220 (RA3-6B2, B.D. […], BD Biosciences, San Jose Calif.), CD138 (281-2, BioLegend), CD38 (CD28.2, BioLegend), Gr-1 (RB6.805, eBioscience), CD62L (DREG-56, BioLegend), and CD25 (PC61, BioLegend) for 30 minutes at 4° C. Samples were acquired on a LSR II flow cytometer (BD Biosciences) and the percentage of each sub-population of cells (B, T, monocytes, macrophage and neutrophils) was assessed by FlowJo [version 7.2.2 (Tree Star)]. Total cell numbers were counted using a hemocytometer. Absolute cell numbers for each sub-population were calculated based on the percentage of each population.

[2] = system: MRL/lpr mouse spleen immune cells; experiment: Cellular immune response in spleen (histology, flow cytometry); format: in vivo
Source text: Harvested organs (kidney, spleen, and heart) to be used to assess morphometry and histochemistry were flushed with PBS, perfusion fixed in Bouin's reagent, and paraffin embedded. Sections (5 μm) were stained with Hematoxylin and Eosin (H&E), Periodic acid—Schiff stain (PAS), Masson-Trichrome, or reticulin staining at the Harvard Medical School Rodent Histopathology Core and scored using an unbiased approach, in which histology scores of 1 (normal) to 5 (most severe pathology) were designated to tissue sections which were only numerically labeled and in no particular order (by Dr. Roderick Bronson, director of the Rodent Histopathology Core, Harvard Medical School). Numerical sections were later decoded, marked for their designated score, and statistically analyzed. Images of the tissue sections were obtained and quantified on a Keyence BZ-9000 Microscope (Keyence Corporation, Itasca, Ill.).
Spleens were cut into 2 to 3 pieces each and homogenized on a 70 μm nylon mesh in 5 ml of HBSS buffer. The cells were filtered through a 70 μm nylon mesh to a new 50 ml tube and centrifuged at 2000 rpm for 5 minutes at room temperature. […]
as §1, with “population. […]” for “population.”

[3] = system: T cells isolated from the spleen of SLE-prone mice; experiment: Proliferation and viability of cultured mouse T cells; format: cell-based
Experimental: Whole tissue cell cultures prepared from mouse spleen and axillary lymph nodes were generated as described above. From within this total cell preparation, total T cells from spleen and the double negative T cells from axillary lymph nodes were further purified through negative selection using a pan T cell isolation kit from Milenyi Biotec (San Diego, Calif.). […] Next, 20 μl of anti-biotin beads were added per 1×10^7 cells and the reaction was kept on ice for another 30 minutes. After centrifuging at 2000 rpm for 5 minutes at 4° C., the pellet was resuspended in 2 ml of T cell isolation buffer (D-PBS, pH7.2, 0.5% FBS and 2 mM EDTA) and the T cells were purified through a magnetic sorting column (MACS).
The purity of isolated T cells routinely exceeded 94%. After purification, T cells were resuspended in RPMI1640 medium with 10% FBS and 1×10^5 cells/well in 100 ul total volume was loaded onto a 96-well plate, either left uncoated or precoated with anti-CD3 antibody (1 ug/ml) (OKT3; Biolegend). All cells loaded onto wells precoated with anti-CD3 antibody were also mixed with anti-CD28 antibody (0.5 μg/ml) (CD28.2; BioLegend) to help potentiate the T cell signaling response. Plated cells were cultured for 48 hours in either the presence of vehicle (DMSO) or Shp2 inhibitor (10 μg/ml). Following the incubation, 15 μl of medium was collected for various cytokine activity analyses.
For cell viability, an MTT (thiazolyl Blue tetrazolium Bromide, M2128, Sigma, St. Louis, Mo.) assay was employed. Briefly, 10 μl of the MTT labeling reagent (final concentration 0.5 mg/ml) was loaded into each cell culture well (96-well plate) and then incubated for 4 hours in a humidified chamber. Following incubation, 100 μl of solubilization solution (0.04N in absolute isopropanol) was added to each well, resuspended, and then incubated at 37° C. for an additional hour. Spectrophotometric absorbance of the samples was assessed using a microplate reader at a wavelength of 595 nm. T cell numbers/proliferation was assessed by cell count using a hemocytometer. In brief, 1×10^5 cells were plated in wells and cultured for 48 hours. 10 μl of cell suspension was then removed and mixed together with 10 μl of trypan blue solution (0.4%, T8154, Sigma). After mixing, 10 μl of the mixture was loaded onto the hemocytometer and the total average number of cells/well was calculated.
Moreover, the proliferative effects observed were specific to the double-negative T cell population (FIG. 20A).

Cn1c(-c2cccc(NC(=O)C(=O)Nc3ccc(-c4ccsc4)cc3)c2)c(I)c2cc(C(=O)O)c(O)cc21 [11a-1]
circulating CD4 and CD8 positive T cell populations ([1]; SLE mice): not the CD4 and CD8 positive T cell populations
circulating T cell leukocyte population ([1]; SLE mice): significantly altered in SLE and inhibited
circulating double negative T cells ([1]; SLE mice): only the double negative cells
circulating leukocytes ([1]; SLE mice vs vehicle): significantly reduced
circulating neutrophils, monocytes, eosinophils, basophils ([1]; SLE mice vs vehicle): not neutrophils, monocytes, eosinophils, or basophils
red blood cells or platelets ([1]; SLE mice vs vehicle): no effects observed
white blood cell (WBC) population ([1]; SLE mice vs vehicle): specifically targets the white blood cell (WBC) population
overall splenic T cell counts ([2]; MRL/lpr mice): overall splenic T cell counts were reduced
splenic CD4, CD8 and double-negative T cells ([2]; MRL/lpr mice): significant reduction in CD4, CD8, and double-negative T cells
germinal center formation in the spleen ([2]; MRL/lpr mice vs vehicle): greatly reduced
total number / proliferation of double-negative T cells ([3]; MRL/lpr, CD3 activation, 48 hours culture, listed as SHP2 inhibitor): decreased the total number of double-negative T cells; also recorded: decreases proliferation
viability of tissue-cultured double-negative T cells ([3]; MTT, absence or presence of CD3 ab, listed as SHP2 inhibitor): did not affect viability; also recorded: does not affect viability
total T cell viability ([3]; MTT, absence or presence of CD3 antibody): no effect on total T cell viability
inactive and CD3 activated T cell proliferation ([3]; SLE mouse splenic T cells, 48 hours culture): significantly inhibited
effects in WT or MRL/MpJ control cells ([3]; presence or absence of stimulation): No effects were observed
